Experiments:
Conditions in all cases: treatment time: 24 h
U2OS = experiment: cell count relative to DMSO control (panel A, nuclei/RNA/PMG/mitochondria stain) (fraction of control); higher = more cells (less toxicity)
Procedure: (§1)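 U2OS-derived cells in 384-well plates were treated for 24 h with a 7-point 2-fold dilution series (top dose 20 µM for most compounds; final max DMSO 1%), then fixed, stained in four marker panels and imaged on a Cellomics ArrayScan. Cell count per treatment (three replicate plates merged) is given as a fraction of DMSO control. Panel A used parental U2OS, panel B U2OS-mOrange2-Peroxisome, panel C1 U2OS-LMNB1-TUBA1B-ACTB (DRAQ5 nuclei).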

U2OS-mOrange2-Peroxisome = experiment: cell count relative to DMSO control (panel B, lysosome/peroxisome/lipid stain) (fraction of control); higher = more cells (less toxicity)
Procedure: as §1

U2OS-LMNB1-TUBA1B-ACTB = experiment: cell count relative to DMSO control (panel C1, DRAQ5/ER stain) (fraction of control); higher = more cells (less toxicity)
Procedure: as §1

CC[C@H]1CN2CCc3cc(OC)c(OC)cc3[C@@H]2C[C@@H]1C[C@H]1NCCc2cc(OC)c(OC)cc21 [emetine]
cell count
Conditions | 0.3125 µM | 0.625 µM | 1.25 µM | 2.5 µM | 5 µM | 10 µM | 20 µM
U2OS | 1.08 | 1.01 | 1.01 | 0.994 | 1.02 | 1.05 | 0.753
U2OS-LMNB1-TUBA1B-ACTB | 1.11 | 1.08 | 1 | 1.06 | 1.02 | 0.916 | 0.899
U2OS-mOrange2-Peroxisome | 1.04 | 1.29 | 1.13 | 1.04 | 1.06 | 1.15 | 1.08

N#C[C@H](O[C@@H]1O[C@H](CO[C@@H]2O[C@H](CO)[C@@H](O)[C@H](O)[C@H]2O)[C@@H](O)[C@H](O)[C@H]1O)c1ccccc1 [amygdalin]
cell count
Conditions | 0.3125 µM | 0.625 µM | 1.25 µM | 2.5 µM | 5 µM | 10 µM | 20 µM
U2OS | 1.09 | 1.06 | 1.07 | 1.02 | 0.921 | 1.05 | 0.974
U2OS-LMNB1-TUBA1B-ACTB | 1.05 | 1.15 | 0.992 | 1.01 | 0.959 | 1.1 | 0.956
U2OS-mOrange2-Peroxisome | 0.877 | 0.848 | 0.731 | 0.983 | 0.805 | 0.948 | 0.953

C/C1=C/C(=O)O[C@@H]2C[C@@H](CC[C@H](C)/C=C\C=C\CC1)O[C@@](O)([C@@H]1CSC(=O)N1)C2 [latrunculin-a]
cell count
Conditions | 0.000781 µM | 0.0015625 µM | 0.003125 µM | 0.00625 µM | 0.0125 µM | 0.025 µM | 0.05 µM
U2OS | 0.372 | 0.438 | 0.369 | 0.312 | 0.278 | 0.194 | 0.121
U2OS-LMNB1-TUBA1B-ACTB | 0.337 | 0.521 | 0.464 | 0.461 | 0.379 | 0.304 | 0.196
U2OS-mOrange2-Peroxisome | 0.66 | 0.625 | 0.479 | 0.467 | 0.312 | 0.155 | 0.0636

COc1cccc2c1C(=O)c1c(O)c3c(c(O)c1C2=O)C[C@@](O)(C(=O)CO)C[C@@H]3O[C@H]1C[C@H](N)[C@H](O)[C@H](C)O1 [doxorubicin]
cell count
Conditions | 0.07812 µM | 0.15625 µM | 0.3125 µM | 0.625 µM | 1.25 µM | 2.5 µM | 5 µM
U2OS | 0.933 | 1.03 | 0.932 | 0.836 | 0.84 | 0.754 | 0.34
U2OS-LMNB1-TUBA1B-ACTB | 1.08 | 1.17 | 1.12 | 1.23 | 0.925 | 0.807 | 0.624
U2OS-mOrange2-Peroxisome | 0.712 | 0.735 | 0.747 | 0.899 | 0.86 | 1.1 | 0.37

COc1ccc2cc1Oc1ccc(cc1)C[C@H]1c3cc(c(OC)cc3CCN1C)Oc1c(OC)c(OC)cc3c1[C@H](C2)N(C)CC3 [tetrandrine]
cell count
Conditions | 0.3125 µM | 0.625 µM | 1.25 µM | 2.5 µM | 5 µM | 10 µM | 20 µM
U2OS | 0.949 | 1 | 1.01 | 0.97 | 0.905 | 0.781 | 0.631
U2OS-LMNB1-TUBA1B-ACTB | 1.04 | 1.06 | 1.06 | 1.05 | 0.976 | 0.796 | 0.639
U2OS-mOrange2-Peroxisome | 0.838 | 0.86 | 0.958 | 0.976 | 0.895 | 0.827 | 0.488

CC(=O)N[C@@H](CC(C)C)C(=O)N[C@@H](CC(C)C)C(=O)N[C@H](C=O)CCCN=C(N)N [leupeptin]
cell count
Conditions | 0.3125 µM | 0.625 µM | 1.25 µM | 2.5 µM | 5 µM | 10 µM | 20 µM
U2OS | 1.07 | 1.09 | 0.933 | 1.09 | 1.04 | 1.03 | 1.01
U2OS-LMNB1-TUBA1B-ACTB | 1.07 | 1.1 | 1.06 | 1.16 | 1.05 | 1.02 | 1.01
U2OS-mOrange2-Peroxisome | 0.839 | 0.806 | 0.749 | 0.771 | 0.895 | 0.952 | 1.27

CN(Cc1cnc2nc(N)nc(N)c2n1)c1ccc(C(=O)N[C@@H](CCC(=O)O)C(=O)O)cc1 [methotrexate]
cell count
Conditions | 0.07812 µM | 0.15625 µM | 0.3125 µM | 0.625 µM | 1.25 µM | 2.5 µM | 5 µM
U2OS | 0.782 | 0.699 | 0.705 | 0.696 | 0.691 | 0.689 | 0.561
U2OS-LMNB1-TUBA1B-ACTB | 0.922 | 0.8 | 0.838 | 0.851 | 0.728 | 0.663 | 0.497
U2OS-mOrange2-Peroxisome | 0.761 | 0.757 | 0.663 | 0.807 | 0.808 | 0.78 | 0.748

CC(=O)N[C@H]1[C@@H](O[C@@H]2O[C@H](CC(O)[C@H]3O[C@@H](n4ccc(=O)[nH]c4=O)[C@H](O)[C@@H]3O)[C@H](O)[C@H](O)[C@H]2NC(=O)/C=C/CC(C)C)O[C@H](CO)[C@@H](N)[C@@H]1O (stereo not given in full) [tunicamycin]
cell count
Conditions | 0.07812 µM | 0.15625 µM | 0.3125 µM | 0.625 µM | 1.25 µM | 2.5 µM | 5 µM
U2OS | 0.979 | 0.654 | 0.663 | 0.582 | 0.61 | 0.535 | 0.535
U2OS-LMNB1-TUBA1B-ACTB | 0.934 | 0.611 | 0.555 | 0.626 | 0.596 | 0.552 | 0.491
U2OS-mOrange2-Peroxisome | 0.498 | 0.477 | 0.558 | 0.528 | 0.587 | 0.448 | 0.517

OC(CS)C(O)CS (stereo not given) [DTT]
cell count
Conditions | 0.3125 µM | 0.625 µM | 1.25 µM | 2.5 µM | 5 µM | 10 µM | 20 µM
U2OS | 0.863 | 0.785 | 0.733 | 0.765 | 0.729 | 0.201 | 0.11
U2OS-LMNB1-TUBA1B-ACTB | 0.887 | 0.811 | 0.809 | 0.764 | 0.806 | 0.477 | 0.457
U2OS-mOrange2-Peroxisome | 0.732 | 0.714 | 0.826 | 0.911 | 0.773 | 0.0574 | 0.0584

CCOc1ccccc1-n1c(C(C)N2CCN(C(=O)COc3ccc(Cl)cc3)CC2)nc2ccccc2c1=O (stereo not given) [erastin]
cell count
Conditions | 0.3125 µM | 0.625 µM | 1.25 µM | 2.5 µM | 5 µM | 10 µM | 20 µM
U2OS | 1.04 | 1.07 | 1.03 | 1.02 | 1.09 | 0.978 | 0.982
U2OS-LMNB1-TUBA1B-ACTB | 1.11 | 1.14 | 1.06 | 1 | 1.11 | 1.03 | 0.905
U2OS-mOrange2-Peroxisome | 0.603 | 0.516 | 0.65 | 0.612 | 0.749 | 0.77 | 0.579

CC(C=CC(=O)NO)=C[C@@H](C)C(=O)c1ccc(N(C)C)cc1 [trichostatin-a]
cell count
Conditions | 0.3125 µM | 0.625 µM | 1.25 µM | 2.5 µM | 5 µM | 10 µM | 20 µM
U2OS | 0.888 | 0.737 | 0.497 | 0.466 | 0.427 | 0.258 | 0.142
U2OS-LMNB1-TUBA1B-ACTB | 1.04 | 0.942 | 0.773 | 0.619 | 0.639 | 0.517 | 0.314
U2OS-mOrange2-Peroxisome | 0.582 | 0.501 | 0.516 | 0.585 | 0.605 | 0.228 | 0.0857

CCCC[C@H]1C(=O)O[C@H](C)[C@H](NC(=O)c2cccc(NC=O)c2O)C(=O)O[C@@H](C)[C@@H]1OC(=O)CC(C)C [antimycin-a]
cell count
Conditions | 0.15625 µM | 0.3125 µM | 0.625 µM | 1.25 µM | 2.5 µM | 5 µM | 10 µM
U2OS | 1.04 | 1.02 | 0.799 | 0.644 | 0.587 | 0.497 | 0.507
U2OS-LMNB1-TUBA1B-ACTB | 1.01 | 1.05 | 0.943 | 0.716 | 0.66 | 0.626 | 0.54
U2OS-mOrange2-Peroxisome | 1.04 | 0.945 | 0.858 | 0.811 | 0.724 | 0.66 | 0.739

COc1cc(NS(C)(=O)=O)ccc1Nc1c2ccccc2nc2ccccc12 [amsacrine]
cell count
Conditions | 0.3125 µM | 0.625 µM | 1.25 µM | 2.5 µM | 5 µM | 10 µM | 20 µM
U2OS | 1.04 | 0.838 | 0.405 | 0.402 | 0.322 | 0.359 | 0.329
U2OS-LMNB1-TUBA1B-ACTB | 0.954 | 0.858 | 0.513 | 0.448 | 0.441 | 0.402 | 0.373
U2OS-mOrange2-Peroxisome | 0.619 | 0.639 | 0.486 | 0.428 | 0.312 | 0.203 | 0.142

Cc1c2oc3c(C)ccc(C(=O)N[C@@H]4C(=O)N[C@H](C(C)C)C(=O)N5CCC[C@H]5C(=O)N(C)CC(=O)N(C)[C@@H](C(C)C)C(=O)O[C@@H]4C)c3nc-2c(C(=O)N[C@@H]2C(=O)N[C@H](C(C)C)C(=O)N3CCC[C@H]3C(=O)N(C)CC(=O)N(C)[C@@H](C(C)C)C(=O)O[C@@H]2C)c(N)c1=O [dactinomycin]
cell count
Conditions | 0.3125 µM | 0.625 µM | 1.25 µM | 2.5 µM | 5 µM | 10 µM | 20 µM
U2OS | 0.928 | 0.89 | 0.807 | 0.741 | 0.73 | 0.381 | 0.229
U2OS-LMNB1-TUBA1B-ACTB | 1.05 | 1.09 | 1 | 0.993 | 0.824 | 0.661 | 0.418
U2OS-mOrange2-Peroxisome | 1.08 | 1.07 | 1.01 | 0.743 | 0.663 | 0.243 | 0.139

Cc1c(N)nc([C@H](CC(N)=O)NC[C@H](N)C(N)=O)nc1C(=O)N[C@H](C(=O)N[C@H](C)[C@@H](O)[C@H](C)C(=O)N[C@H](C(=O)NCCc1nc(-c2nc(C(=O)NCCC[S+](C)C)cs2)cs1)[C@@H](C)O)[C@@H](O[C@@H]1O[C@@H](CO)[C@@H](O)[C@H](O)[C@@H]1O[C@H]1O[C@H](CO)[C@@H](O)[C@H](OC(N)=O)[C@@H]1O)c1c[nH]cn1 [bleomycin]
cell count
Conditions | 0.3125 µM | 0.625 µM | 1.25 µM | 2.5 µM | 5 µM | 10 µM | 20 µM
U2OS | 0.746 | 0.849 | 0.8 | 0.933 | 0.701 | 0.817 | 0.794
U2OS-LMNB1-TUBA1B-ACTB | 0.845 | 0.893 | 0.934 | 1.02 | 0.88 | 0.909 | 0.887
U2OS-mOrange2-Peroxisome | 1.36 | 1.16 | 1.31 | 1.26 | 1.32 | 1.25 | 1.34
